Measurements reported in patent US9943563B2, “Compositions and methods for treating vitiligo” (Stealth Peptides International, Inc., priority 2013, dated 2018).
“Also recorded” adds a separate entry of the source. Square brackets hold non-standard residues; d marks the D form. Ends that are not written are not given here.

What was measured:
[1] = system: plasma membrane of several mammalian cell types; conditions: energy-independent manner; cited from earlier work
[2] = system: melanocytes from human subjects diagnosed with vitiligo (VHM); experiment: Mitochondrial membrane potential of melanocytes (JC-1 probe); type: cell-based; conditions: peptide at 1.5 μM and 2.0 μM added each day for 7 days, vs 0 μM and untreated NHM
Protocol: Cultured melanocytes from each patient were divided into three groups, wherein each group was treated with D-Arg-2′,6′-Dmt-Lys-Phe-NH2 at 0 μM, 1.5 μM, and 2 μM. D-Arg-2′,6′-Dmt-Lys-Phe-NH2 added to the growth media each day for 7 days. After 7 days, mitochondrial membrane potential (ΔΨm) of the melanocytes were assessed with a JC-1 probe (see, e.g., JC-1 Mitochondrial Membrane Potential Assay Kit, Cayman Chemical Co., Ann Arbor, Mich.).

[3] = system: melanocytes from human subjects diagnosed with vitiligo (VHM); experiment: ATP production of melanocytes (fluorimetric determination); type: cell-based; conditions: 2 μM added each day for 3 days, vs untreated (0 μM)
Protocol: Melanocytes were isolated and cultured from two human patients diagnosed with vitiligo (VHM). Cultured melanocytes from each patient were divided into two groups, wherein each group was treated with D-Arg-2′,6′-Dmt-Lys-Phe-NH2 at 0 μM and 2 μM. D-Arg-2′,6′-Dmt-Lys-Phe-NH2 was added to the growth media each day for 3 days. After 3 days, the melanocytes were lysed and ATP levels were measures by fluorimetric determination. Each assay was performed in triplicate.

[4] = system: autologous vitiligo skin explants; experiment: T-cell accumulation and cytotoxic activity in autologous vitiligo skin explants; type: in vivo, human; conditions: vitiligo patients, 0.25 mg/kg/day for twelve weeks, perilesional T-cells co-cultured with autologous skin explants 2 days
Protocol: Active vitiligo patients are subdivided into 2 groups. Group I subjects are administered a daily dose of 0.25 mg/kg/day of D-Arg-2′,6′-Dmt-Lys-Phe-NH2 for twelve weeks whereas Group II vitiligo subjects are treated with drug vehicle and serve as controls. Punch-biopsies are obtained flanking the depigmented macule from Group I and Group II vitiligo subjects. These biopsies are cultured to promote T-cell growth according to the procedures described in Van Den Boom et al., Journal of Investigative Dermatology, 129: 2220-2232 (2009). The ability of these perilesional T-cells to infiltrate and actively kill melanocytes within the skin tissue microenvironment is tested using skin explant assays. Autologous skin explants are generated according to the procedures described in Van Den Boom et al., Journal of Investigative Dermatology, 129: 2220-2232 (2009). Perilesional T-cells are co-cultured with normally pigmented autologous skin explants for 2 days. T-cells are allowed to infiltrate the skin explants and migrate toward the melanocytes located at the dermal-epidermal junction. Skin explant cryosections are analyzed for the presence of infiltrated T-cells, melanocytes, and apoptosis by immunohistochemistry or immunofluorescence as described in Van Den Boom et al., Journal of Investigative Dermatology, 129: 2220-2232 (2009).

vitiligo mice = experiment: Progressive depigmentation in the pelage of the vitiligo mouse model; type: in vivo; conditions: 0.25 mg/kg/day for four weeks before plucking, 2 weeks after plucking dorsal hairs, vs untreated
Protocol: Vitiligo mice described in Lerner et al., Journal of Investigative Dermatology, 87: 299-304 (1986) are obtained. Vitiligo mice are subdivided into 2 groups. Group I mice are administered a daily dose of 0.25 mg/kg/day of D-Arg-2′,6′-Dmt-Lys-Phe-NH2 for four weeks before plucking dorsal hairs whereas Group II vitiligo mice are treated with drug vehicle before plucking. The regrowth of amelanotic hairs is monitored via light microscopy.

[5] = system: adoptive transfer mouse model of vitiligo; experiment: Epidermal depigmentation in an adoptive transfer mouse model of vitiligo; type: in vivo; conditions: adoptive transfer vitiligo mice, 0.25 mg/kg/day for four weeks; tail, nose, footpad; vs untreated
Protocol: Vitiligo mice described in Harris et al., Journal of Investigative Dermatology, 132: 1869-1876 (2012) are obtained. This adoptive transfer mouse model of vitiligo recapitulates the human condition by inducing epidermal depigmentation while sparing the hair. These mice are subdivided into 2 groups. Group I mice are administered a daily dose of 0.25 mg/kg/day of D-Arg-2′,6′-Dmt-Lys-Phe-NH2 for four weeks whereas Group II vitiligo mice are treated with drug vehicle and serve as controls. The loss of pigmentation in epidermal tissues such as the tail, nose and footpad is monitored via light microscopy.

mu-opioid receptor = mu-opioid receptor (Homo sapiens, UniProt P35372); conditions: stated in the description, no test described; cited from earlier work
mu-opioid receptor, sequence (P35372 whole entry, species assumed): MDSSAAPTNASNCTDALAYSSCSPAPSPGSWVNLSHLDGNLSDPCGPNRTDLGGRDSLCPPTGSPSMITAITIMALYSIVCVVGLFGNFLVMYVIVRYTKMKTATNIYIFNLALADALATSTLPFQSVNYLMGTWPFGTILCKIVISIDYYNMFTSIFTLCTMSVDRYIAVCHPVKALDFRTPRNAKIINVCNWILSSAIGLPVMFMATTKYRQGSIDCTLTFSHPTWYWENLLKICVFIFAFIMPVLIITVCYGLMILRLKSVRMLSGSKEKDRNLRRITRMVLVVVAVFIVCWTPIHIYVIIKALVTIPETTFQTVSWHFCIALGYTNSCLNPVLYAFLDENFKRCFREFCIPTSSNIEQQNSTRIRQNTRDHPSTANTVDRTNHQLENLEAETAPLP

2′,6′-Dmt-D-Arg-Phe-Lys-NH2
penetration of the plasma membrane [1]: readily penetrates the plasma membrane

D-Arg-2′,6′-Dmt-Lys-Phe-NH2
mitochondrial membrane potential (ΔΨm) of VHM melanocytes [2]: returned the mitochondrial membrane potential of the VHM melanocytes to levels found in untreated NHM melanocytes; also recorded: increased the mitochondrial membrane potential | mitochondrial membrane potential (ΔΨm) of VHM melanocytes ([2]; listed as D-Arg-2′6′-Dmt-Lys-Phe-NH2): nearly doubled | ATP production of VHM melanocytes [3]: elevated ATP production levels; also recorded: increased the ATP production | melanocyte survival rates in skin explants [4]: greater than untreated vitiligo explants | rate of progressive depigmentation (vitiligo mice): reduced rate of progressive depigmentation | severity of depigmentation in epidermal tissues [5]: reduced severity of depigmentation | mu-opioid receptor agonist activity (mu-opioid receptor): does not have mu-opioid receptor agonist activity

F[dR]FK-NH2
mu-opioid receptor agonist activity (mu-opioid receptor): does not have mu-opioid receptor agonist activity

Tyr-D-Arg-Phe-Lys-NH2
mu-opioid receptor agonist activity (mu-opioid receptor): has mu-opioid receptor agonist activity
